Experimental data: article PMC8343194 (Acta Pharmaceutica Sinica. B, 2021)
Read-outs that look alike come from different tables or passages of the source. Values belong to the compound of their own block, whether it stands above or below them.

Experiments:
MDA435/LCC6 cells = test: Sulforhodamine B cytotoxicity assay, parental cells; format: cell-based; conditions: Homo sapiens
MDA435/LCC6 MDR1 cells = test: Sulforhodamine B cytotoxicity / MDR reversal assay, ABCB1-transfected cells; format: cell-based, human; conditions: for IC50: Homo sapiens
[1] = Pharmacokinetic study of paclitaxel with oral type I POPs; format: in vivo, Sprague–Dawley rats
[2] = Sprague-Dawley, rat, plasma, iv, 6 mg/kg
[3] = compound at 0.4 μmol/L, MDA435/LCC6 MDR1

brain accumulation of paclitaxel ([1]; 24 h after last dose, 6 consecutive days): no brain accumulation of paclitaxel | half-life ([1]; Sprague-Dawley, rat, plasma, intravenous): 252 ± 18 min | clearance [1, 2]: 91.7 mL/min/kg | half-life [1, 2]: 192 ± 42 min | Ctrough of paclitaxel after the last dose ([1]; paclitaxel iv 6 mg/kg/day ± type I POPs po 50 mg/kg/day for 6 consecutive days): 15.8 ± 6.6 nmol/L
SMILES: CC(=O)O[C@H]1C(=O)[C@@]2(C)[C@H]([C@H](OC(=O)c3ccccc3)[C@]3(O)C[C@H](OC(=O)[C@H](O)[C@@H](NC(=O)c4ccccc4)c4ccccc4)C(C)=C1C3(C)C)[C@]1(OC(C)=O)CO[C@@H]1C[C@@H]2O [Paclitaxel, paclitaxel]
IC50 (MDA435/LCC6 cells; MDA-435/LCC6, read-out: IC50 of paclitaxel): 1.36 ± 0.14 nM | IC50 (MDA435/LCC6 MDR1 cells; read-out: IC50 of paclitaxel): 120 ± 9.44 nM | behavior and body weight of rats ([1]; 6 consecutive days of paclitaxel alone or with type I POPs mixture): no abnormality in behavior and no significant weight losses

SMILES: COc1cccc2c1C(=O)c1c(O)c3c(c(O)c1C2=O)C[C@@](O)(C(=O)CO)C[C@@H]3O[C@H]1C[C@H](N)[C@H](O)[C@H](C)O1 [Doxorubicin, doxorubicin]
IC50 (MDA435/LCC6 cells; MDA-435/LCC6, read-out: IC50 of doxorubicin): 76 ± 8 nM | IC50 (MDA435/LCC6 MDR1 cells; read-out: IC50 of doxorubicin): 695 ± 40 nM

SMILES: C/C=C/C[C@@H](C)C(=O)[C@H]1C(=O)N[C@@H](C(C)C)C(=O)N(C)CC(=O)N(C)[C@@H](CC(C)C)C(=O)N[C@@H](C(C)C)C(=O)N(C)[C@@H](CC(C)C)C(=O)N[C@@H](C)C(=O)N[C@H](C)C(=O)N(C)[C@@H](CC(C)C)C(=O)N(C)[C@@H](CC(C)C)C(=O)N(C)[C@@H](C(C)C)C(=O)N1C [PSC833, valspodar]
Fold change of doxorubicin IC50 (alone/combination) (MDA435/LCC6 MDR1 cells; [3]): 11 | Fold change of paclitaxel IC50 (alone/combination) (MDA435/LCC6 MDR1 cells; [3]): 59
